Experimental findings from publication PMC8070447, “Facile Synthesis and In Vitro Activity of N-Substituted 1,2-Benzisothiazol-3(2H)-ones against Dengue Virus NS2BNS3 Protease” (Pathogens, 2021) are described below.

Entries after “also recorded” stand apart in the source; their conditions may differ. Like-named read-outs stand apart in the source and are kept apart here.

The target of data set [1] is recombinant DENV2 NS2BNS3 protease (Dengue virus type 2, UniProt P29990). Description: DENV2 NS2BNS3 protease inhibition assay (fluorogenic Bz-Nle-Lys-Arg-Arg-AMC substrate). In kind it is biochemical. The settings on record: for inhibition at 50 µM: single dose 50 μM BIT, 100 nM protease. Here is the method:
The DENV NS2BNS3 activity inhibition assays were conducted in a 96-well plate containing 100 μL total reaction mixture. […] The reaction, in triplicates, was initiated by the addition of 100 nM DENV2 NS2B-NS3, and the release of fluorogenic AMC was measured at 60 s intervals using a spectrofluorometer for a maximum reaction time of 30 min. A solvent (DMSO) control was run for each assay plate by measuring the activity of DENV NS2BNS3 in the absence of BITs (DMSO control). The effect of background fluorescence was measured by preparing a calibration curve, which in turn was obtained by spiking known concentrations of free AMC in the same volume of the reaction mixtures containing the buffer, enzyme and compounds, and comparing the slope of this curve with that obtained using free AMC concentrations in reaction mixtures containing the buffer, enzyme, no compound and no substrate. The percentage of inhibition was calculated using the measurement of the initial rates of reaction in the presence (vexp) , or absence (vpro) of BIT according to the following formula: Inhibition (%)= 100−(vexp/vpro×100).
For the dose–response experiments, the assays were conducted as described above in the presence of threefold serial dilutions of BITs, ranging from 0.076–500 μM concentrations in DMSO. The final concentration of DMSO in each reaction mixture was less than 5%. IC50 values were obtained by plotting the residual activity of the DENV protease vs. log of the concentration of BITs by using GraphPad Prism v.7 software (San Diego, CA USA). For the positive control, aprotinin was used in a 5 μM concentration. All experiments were conducted in triplicates.
The synthesised BITs were tested for their inhibitory activity against the DENV2 NS2B/NS3 protease assay using the previously reported 96-well plate method. […] A reduction in the cleavage of the […] (AMC) measured in terms of the reduction of fluorescence was deemed to show inhibition of the protease and is reported as a percentage inhibition compared with the solvents’ control reaction. […] Aprotinine was used as the positive control, as described previously.
A threefold serial dilution of the selected BITs, ranging from 150 μM to about 200 nM, were screened in triplicate experiments, as described above. The kinetic data were obtained and the protease’s residual activities in the presence of the tested BITs were inserted into the dose–response model rooted in the GraphPad Prism software (version 7.0).
Figure 3 Inhibition and dose–response of DENV NS2BNS3 protease against the BITs. (A) A concentration of 50 μM BITs was incubated in the presence of 100 nM recombinant DENV2 NS2BNS3 protease and 5 µM tetrapeptide-AMC substrate in a Tris buffer at pH 9.5. The time-dependent release of fluorescent AMC tag was measured for 30 min and compared with the solvent control (−). […] Aprotinine (5 µM) was used as a positive control. Each bar represents a mean value of three replicates. […] The dashed horizontal line indicates the 50% activity level.

Data set [2] concerns DENV2. Description: DENV replication assay, viral RNA in supernatant by RT-qPCR. It counts as cell-based, DENV2 in Vero cells. The note with it: 30 μM, Vero cells pre-incubated 1 h, supernatant after two days. As to the method:
Based on the manufacturer’s manual, viral RNA was isolated from 200 µL cell culture supernatants using the Roche HP Viral Nucleic Acid Kit (Roche, Mannheim, Germany). Relative viral genome copy numbers were determined using 5 µL of the eluted RNA and RT-qPCR using the LightMix® Modular Dengue kit (TIB MOLBIOL, Germany) in combination with the LightCycler RNA Process Control Kit (Roche, Mannheim, Germany). All reactions were performed in triplicates on Roche LightCycler96 or Roche LightCycler480 II qPCR machines (Roche, Mannheim, Germany). The relative RNA concentration was determined using an RNA standard curve and the respective cycler software. The quality of the RT-qPCRs was ensured by following the Minimum Information for Publication of Quantitative […] Experiments guidelines, i.e., the recursion coefficient of the relative standard curve (r^2) was >0.95, and the triplicate assays with a standard deviation of >0.5 were excluded from the analyses. The resulting genome copy numbers were expressed as genome copies per millilitre of the cell culture supernatants. The statistical significance of the reduction in viral titres was calculated using Student’s t-test by comparing the viral load of a single compound with the DMSO control.
The BITs were tested for cytotoxicity in the Vero cells before their evaluation in cell culture assays (Figure S1). […] The BITs showing weaker DENV2 NS2BNS3 protease activity in the biochemical assay were excluded in the in vitro evaluations. […] All infections were performed in triplicate. After two days, the cellular supernatants were collected and the viral RNAs were isolated and quantified using real-time quantitative polymerase chain reaction (RT-qPCR).
(§1) (A) Vero cells were infected with DENV2 and incubated in the presence of the compounds. After incubation, viral RNA was isolated and quantified using RT-qPCR. (B) Viral infectivity of the compounds 5m and 5n was determined using immunofluorescence (IF) staining.

Data set [3] concerns DENV2. The data set can be described thus: Viral infectivity by immunofluorescence staining of Vero cells infected with supernatants. It counts as cell-based, DENV2 in Vero cells. Here is the method:
The inhibition of viral replication was analysed using immunofluorescence staining. Vero cells were preincubated with selected BITs at 30 μM. The cells were subsequently infected with DENV-2 (multiplicity of infection (MOI) of 0.5). Cellular supernatants were collected after 2 days, centrifuged at 2000 rpm for 5 min to remove the detached cells, and titrated on Vero cells. These cells were fixed with 4% paraformaldehyde 3 days after infection. We performed immunofluorescence staining to visualise the infected cells with monoclonal anti-DENV-2 E antibodies. Bound antibodies were detected with a Cy3-conjugated donkey anti-mouse antibody (Dianova, Hamburg, Germany) (1:500). Stained infected cells were counted using a fluorescence microscope, and the viral titres were calculated. The experiment was performed in triplicates. The statistical significance of the reduction of infected cells was calculated using Student’s t-test by comparing numbers of infected cells incubated with a compound with the DMSO control.
To further analyse whether the compounds 5m and 5n suppressed the viral gene infectivity, Vero cells were pretreated with the compounds and subsequently infected with DENV2 for two days. Cellular supernatants were uses to infect the Vero cells. After two additional days, the infected cells were visualised using immunofluorescence with anti-DENV antibodies. The stained cells were counted (Figure 5).
as §1

[4] abbreviates: Vero cells pretreated, DENV2, immunofluorescence.

By melting point is commonly meant the temperature, or range, at which the solid turns liquid. The term IC50 denotes the concentration needed to halve the response being measured. By inhibition is commonly meant the change of the read-out against control, counted positive when it falls.

recombinant DENV2 NS2BNS3 protease, sequence (P29990 1398-1437): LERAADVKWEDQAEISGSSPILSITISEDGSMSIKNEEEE
recombinant DENV2 NS2BNS3 protease, sequence (P29990 1476-1653): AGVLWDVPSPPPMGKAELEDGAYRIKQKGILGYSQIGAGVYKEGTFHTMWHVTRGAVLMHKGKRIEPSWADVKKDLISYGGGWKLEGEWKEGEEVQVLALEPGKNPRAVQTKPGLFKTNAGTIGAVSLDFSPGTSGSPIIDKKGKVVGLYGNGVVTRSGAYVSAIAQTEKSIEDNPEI

`CCCCc1ccc(-n2sc3ccccc3c2=O)cc1` [Compound 5g, 2-(4-Butylphenyl)benzo[d]isothiazol-3(2H)-one] showed a melting point of 168 to 172 °C.
`O=c1c2ccccc2sn1-c1ccccc1[N+](=O)[O-]` [Compound 5h, 2-(2-Nitrophenyl)benzo[d]isothiazol-3(2H)-one] yielded a melting point of 199 to 200 °C. In addition, in data set [1], the IC50 worked out at 41.8 ± 1.17 µM and the inhibition at 50 µM was around 70%.
With `O=c1c2ccccc2sn1-c1ccc([N+](=O)[O-])cc1` [Compound 5i, 2-(4-Nitrophenyl)benzo[d]isothiazol-3(2H)-one], the melting point fell in the range of 126 to 129 °C.
Consider `Cc1cc([N+](=O)[O-])ccc1-n1sc2ccccc2c1=O` [Compound 5j, 2-(2-Methyl-4-nitrophenyl)benzo[d]isothiazol-3(2H)-one], for which the melting point was 135 to 138 °C. Besides, in data set [1], the IC50 stood at 2.56 ± 1.03 µM and the inhibition at 50 µM is above 90%. In addition, the “suppression of DENV replication (viral RNA, RT-qPCR)” value (from here on “suppression of DENV replication”) with DENV2 [2] is recorded as “did not show any activity against DENV2”.
`O=c1c2ccccc2sn1-c1ccc(Br)cc1` [Compound 5k, 2-(4-Bromophenyl)benzo[d]isothiazol-3(2H)] gave a melting point of 138 to 140 °C. Also, in data set [1], the IC50 came to 8.24 ± 1.16 µM and the inhibition at 50 µM amounted to 80%.
Take `O=c1c2ccccc2sn1-c1ccccc1O` [Compound 5l, 2-(2-Hydroxyphenyl)benzo[d]isothiazol-3(2H)-one]: the melting point was 198 to 200 °C. For the same compound, in data set [1], the IC50 worked out at 6.66 ± 2.17 µM and the inhibition at 50 µM is at least 90%.
As to `O=c1c2ccccc2sn1-c1ccccc1Cl` [Compound 5m, 2-(2-Chlorophenyl)benzo[d]isothiazol-3(2H)-one], the “reduction of viral infectivity” value is 1 log value in the data set on DENV2 [3] and 1.4 orders of magnitude in the data set with DENV2 [3] (setting [4]). For the same compound, the “reduction of viral infectivity (in words)” value (“reduction … (in words)” below) with DENV2 [3] (setting [4]) is “inhibited DENV replication and viral infectivity”; with DENV2 [3] (Vero cells pretreated, DENV2, immunofluorescence, listed as 2-(2-chlorophenyl)benzo[d]isothiazol-3(2H)-one), “could suppress DENV replication and virus infectivity”. The IC50 in data set [1] is 2.01 ± 0.98 µM. The inhibition at 50 µM in data set [1] is above 90%. The “suppression of DENV replication” value in the data set with DENV2 [2] is given as “able to suppress DENV replication at a significant level; also recorded: inhibited DENV replication”; in the data set on DENV2 [2] (listed as 2-(2-chlorophenyl)benzo[d]isothiazol-3(2H)-one) it was “could suppress DENV replication”.
Turning to `O=c1c2ccccc2sn1-c1c(Cl)cccc1Cl` [Compound 5n, 2-(2,6-Dichlorophenyl)benzo[d]isothiazol-3(2H)-one], the melting point lay in the range of 188 to 190 °C. Further, the “reduction … (in words)” value with DENV2 [3] (setting [4]) was “about sixfold”. The “reduction … (in words)” value in the data set with DENV2 [3] (Vero cells pretreated, DENV2, immunofluorescence, listed as 2-(2,6-dichlorophenyl)benzo[d]isothiazol-3(2H)-one) was “could suppress DENV replication and virus infectivity”. In data set [1], the IC50 turned out to be 5.28 ± 1.89 µM and the inhibition at 50 µM was above 90%. For the same compound, the “suppression of DENV replication” value in the data set with DENV2 [2] is “able to suppress DENV replication at a significant level”. For the same compound, in the data set on DENV2 [2] (listed as 2-(2,6-dichlorophenyl)benzo[d]isothiazol-3(2H)-one), the “suppression of DENV replication” value is given as “could suppress DENV replication”.
Take `COc1ccc(-n2sc3ccccc3c2=O)cc1` [Compound 5o, 2-(4-Methoxyphenyl)benzo[d]isothiazol-3(2H)-one]: in data set [1], the IC50 is 26.5 ± 4.32 µM and the inhibition at 50 µM was determined as 58%.
